Assay: Phase I trial, combination with carboplatin: adverse events and DLTs
Assay type: in vivo, human
Procedure: Pts with advanced solid tumors enrolled in 2 sequential parts.
In part A, single pt cohorts received a compound of Formula A-2 once weekly in 21-day cycles with 3+3 dose escalation cohorts being implemented if grade 2 drug-related adverse events (AEs) occurred. […] If a DLT was reported, the cohort was expanded to include 3 additional pts with subsequent dose escalation being permitted if no further DLTs occurred. Paired pre- and post-treatment biopsies from selected pts in part B were assessed for pCHK1 levels by immunohistochemistry. Models based on preclinical and clinical data were used to simulate hematologic toxicities and pCHK1 inhibition for pts treated with a compound of Formula A-2 and CP.

[1] = A-2 90 mg/m2 + Carboplatin AUC 5 (n = 3)
[2] = A-2 90 mg/m^2 + Carboplatin AUC5 (N = 6)
[3] = A-2 120 mg/m2 + Carboplatin AUC 4 (n = 3)
[4] = A-2 120 mg/m2 + Carboplatin AUC 5 (n = 3)
[5] = A-2 120 mg/m^2 + Carboplatin AUC4 (N = 3)

## CNCc1ccc(-c2cc(-c3nc(-c4ccc(S(=O)(=O)C(C)C)cc4)cnc3N)on2)cc1 [Compound A-2]
[1]
  Treatment related adverse event: Alopecia, All Grades: 2 (20.0) n (%)
  Treatment related adverse event: Alopecia, Grade ≥ 3: 0 n (%)
  Treatment related adverse event: Anemia, All Grades: 4 (40.0) n (%)
  Treatment related adverse event: Anemia, Grade ≥ 3: 0 n (%)
  Treatment related adverse event: Any Event, All Grades: 9 (90.0) n (%)
  Treatment related adverse event: Any Event, Grade ≥ 3: 1 (10.0) n (%)
  Treatment related adverse event: Fatigue, All Grades: 4 (40.0) n (%)
  Treatment related adverse event: Fatigue, Grade ≥ 3: 0 n (%)
  Treatment related adverse event: Flushing, All Grades: 1 (10.0) n (%)
  Treatment related adverse event: Flushing, Grade ≥ 3: 0 n (%)
  Treatment related adverse event: Headache, All Grades: 0 n (%)
  Treatment related adverse event: Headache, Grade ≥ 3: 0 n (%)
  Treatment related adverse event: Hypersensitivity, All Grades: 0 n (%)
  Treatment related adverse event: Hypersensitivity, Grade ≥ 3: 0 n (%)
  Treatment related adverse event: Infusion related reaction, All Grades: 1 (10.0) n (%)
  Treatment related adverse event: Infusion related reaction, Grade ≥ 3: 0 n (%)
  Treatment related adverse event: Nausea, All Grades: 3 (30.0) n (%)
  Treatment related adverse event: Nausea, Grade ≥ 3: 0 n (%)
  Treatment related adverse event: Neuropathy peripheral, All Grades: 0 n (%)
  Treatment related adverse event: Neuropathy peripheral, Grade ≥ 3: 0 n (%)
  Treatment related adverse event: Neutropenia, All Grades: 3 (30.0) n (%)
  Treatment related adverse event: Neutropenia, Grade ≥ 3: 1 (10.0) n (%)
  Treatment related adverse event: Pruritus, All Grades: 1 (10.0) n (%)
  Treatment related adverse event: Pruritus, Grade ≥ 3: 0 n (%)
  Treatment related adverse event: Thrombocytopenia, All Grades: 2 (20.0) n (%)
  Treatment related adverse event: Thrombocytopenia, Grade ≥ 3: 0 n (%)
  Treatment related adverse event: Vomiting, All Grades: 0 n (%)
  Treatment related adverse event: Vomiting, Grade ≥ 3: 0 n (%)
[2]
  Treatment related adverse event: Alopecia, All: 2
  Treatment related adverse event: Alopecia, ≥3: 0
  Treatment related adverse event: Anemia, All: 3
  Treatment related adverse event: Anemia, ≥3: 0
  Treatment related adverse event: Fatigue, All: 3
  Treatment related adverse event: Fatigue, ≥3: 0
  Treatment related adverse event: Flushing, All: 0
  Treatment related adverse event: Flushing, ≥3: 0
  Treatment related adverse event: Headache, All: 0
  Treatment related adverse event: Headache, ≥3: 0
  Treatment related adverse event: Hypertension, All: 0
  Treatment related adverse event: Hypertension, ≥3: 0
  Treatment related adverse event: Nausea, All: 1
  Treatment related adverse event: Nausea, ≥3: 0
  Treatment related adverse event: Neuropathy peripheral, All: 0
  Treatment related adverse event: Neuropathy peripheral, ≥3: 0
  Treatment related adverse event: Neutropenia, All: 2
  Treatment related adverse event: Neutropenia, ≥3: 1
  Treatment related adverse event: Respiratory tract infection, ≥3: 0
  Treatment related adverse event: Thrombocytopenia, All: 2
  Treatment related adverse event: Thrombocytopenia, ≥3: 0
  Treatment related adverse event: Vomiting, All: 0
  Treatment related adverse event: Vomiting, ≥3: 0
[3]
  Treatment related adverse event: Alopecia, All Grades: 0 n (%)
  Treatment related adverse event: Alopecia, Grade ≥ 3: 0 n (%)
  Treatment related adverse event: Anemia, All Grades: 1 (33.3) n (%)
  Treatment related adverse event: Anemia, Grade ≥ 3: 0 n (%)
  Treatment related adverse event: Any Event, Grade ≥ 3: 0 n (%)
  Treatment related adverse event: Fatigue, All Grades: 0 n (%)
  Treatment related adverse event: Fatigue, Grade ≥ 3: 0 n (%)
  Treatment related adverse event: Flushing, All Grades: 1 (33.3) n (%)
  Treatment related adverse event: Flushing, Grade ≥ 3: 0 n (%)
  Treatment related adverse event: Headache, All Grades: 0 n (%)
  Treatment related adverse event: Headache, Grade ≥ 3: 0 n (%)
  Treatment related adverse event: Hypersensitivity, All Grades: 0 n (%)
  Treatment related adverse event: Hypersensitivity, Grade ≥ 3: 0 n (%)
  Treatment related adverse event: Infusion related reaction, All Grades: 0 n (%)
  Treatment related adverse event: Infusion related reaction, Grade ≥ 3: 0 n (%)
  Treatment related adverse event: Nausea, All Grades: 1 (33.3) n (%)
  Treatment related adverse event: Nausea, Grade ≥ 3: 0 n (%)
  Treatment related adverse event: Neuropathy peripheral, All Grades: 0 n (%)
  Treatment related adverse event: Neuropathy peripheral, Grade ≥ 3: 0 n (%)
  Treatment related adverse event: Neutropenia, All Grades: 0 n (%)
  Treatment related adverse event: Neutropenia, Grade ≥ 3: 0 n (%)
  Treatment related adverse event: Pruritus, All Grades: 1 (33.3) n (%)
  Treatment related adverse event: Pruritus, Grade ≥ 3: 0 n (%)
  Treatment related adverse event: Thrombocytopenia, All Grades: 1 (33.3) n (%)
  Treatment related adverse event: Thrombocytopenia, Grade ≥ 3: 0 n (%)
  Treatment related adverse event: Vomiting, All Grades: 0 n (%)
  Treatment related adverse event: Vomiting, Grade ≥ 3: 0 n (%)
[4]
  Treatment related adverse event: Alopecia, All Grades: 0 n (%)
  Treatment related adverse event: Alopecia, Grade ≥ 3: 0 n (%)
  Treatment related adverse event: Anemia, Grade ≥ 3: 0 n (%)
  Treatment related adverse event: Any Event, All Grades: 3 (100) n (%)
  Treatment related adverse event: Fatigue, All Grades: 1 (33.3) n (%)
  Treatment related adverse event: Fatigue, Grade ≥ 3: 0 n (%)
  Treatment related adverse event: Flushing, All Grades: 0 n (%)
  Treatment related adverse event: Flushing, Grade ≥ 3: 0 n (%)
  Treatment related adverse event: Headache, All Grades: 0 n (%)
  Treatment related adverse event: Headache, Grade ≥ 3: 0 n (%)
  Treatment related adverse event: Hypersensitivity, All Grades: 1 (33.3) n (%)
  Treatment related adverse event: Hypersensitivity, Grade ≥ 3: 1 (33.3) n (%)
  Treatment related adverse event: Infusion related reaction, All Grades: 1 (33.3) n (%)
  Treatment related adverse event: Infusion related reaction, Grade ≥ 3: 0 n (%)
  Treatment related adverse event: Nausea, Grade ≥ 3: 0 n (%)
  Treatment related adverse event: Neuropathy peripheral, All Grades: 0 n (%)
  Treatment related adverse event: Neuropathy peripheral, Grade ≥ 3: 0 n (%)
  Treatment related adverse event: Neutropenia, Grade ≥ 3: 1 (33.3) n (%)
  Treatment related adverse event: Pruritus, All Grades: 0 n (%)
  Treatment related adverse event: Pruritus, Grade ≥ 3: 0 n (%)
  Treatment related adverse event: Thrombocytopenia, All Grades: 1 (33.3) n (%)
  Treatment related adverse event: Thrombocytopenia, Grade ≥ 3: 0 n (%)
  Treatment related adverse event: Vomiting, All Grades: 0 n (%)
  Treatment related adverse event: Vomiting, Grade ≥ 3: 0 n (%)
[5]
  Treatment related adverse event: Alopecia, All: 0
  Treatment related adverse event: Alopecia, ≥3: 0
  Treatment related adverse event: Anemia, All: 1
  Treatment related adverse event: Anemia, ≥3: 0
  Treatment related adverse event: Fatigue, All: 0
  Treatment related adverse event: Fatigue, ≥3: 0
  Treatment related adverse event: Flushing, All: 1
  Treatment related adverse event: Flushing, ≥3: 0
  Treatment related adverse event: Headache, All: 0
  Treatment related adverse event: Headache, ≥3: 0
  Treatment related adverse event: Hypertension, All: 0
  Treatment related adverse event: Hypertension, ≥3: 0
  Treatment related adverse event: Nausea, All: 1
  Treatment related adverse event: Nausea, ≥3: 0
  Treatment related adverse event: Neuropathy peripheral, All: 0
  Treatment related adverse event: Neuropathy peripheral, ≥3: 0
  Treatment related adverse event: Neutropenia, All: 0
  Treatment related adverse event: Neutropenia, ≥3: 0
  Treatment related adverse event: Respiratory tract infection, All: 0
  Treatment related adverse event: Respiratory tract infection, ≥3: 0
  Treatment related adverse event: Thrombocytopenia, All: 1
  Treatment related adverse event: Thrombocytopenia, ≥3: 0

From patent US20230106592A1, “METHOD FOR TREATING CANCER USING A COMBINATION OF DNA DAMAGING AGENTS AND ATR INHIBITORS” (Vertex Pharmaceuticals Incorporated, priority 2015, published 2023)
